Experimental data reported in patent US11648248B1 (King Abdulaziz University, priority 2022, dated 2023).
Values after ≈ are worked out from the molar mass of the structure shown. Where two headings read alike, the source gives them in different places.

Experiments:
Assay type in all cases: cell-based
[1] = system: Escherichia coli BW25113 (wild-type); assay: MIC broth microdilution, initial screening; details: Escherichia coli, E. coli BW25113, 18-20 hours, read-out: minimum inhibitory concentration (MIC) E. coli (Wild-type)
Experimental: (§1) The minimum inhibitory concentrations (MICs) of the tested compounds and control drugs (linezolid, vancomycin, gentamicin (antibiotics) and fluconazole and 5-fluorocytosine (5-FC) (antifungal drugs)) were determined using the broth microdilution method, according to guidelines outlined by the Clinical and Laboratory Standards Institute (CLSI, Clinical and Laboratory Standards Institute, Methods for antimicrobial susceptibility testing of anaerobic bacteria; approved standard, M11-A8. 8th ed., 2012; CLSI, Clinical and Laboratory Standards Institute. M27-A3 Reference Method for Broth Dilution Antifungal Susceptibility Testing of Yeasts; Approved Standard—Third Edition, Wayne, Pa., 2008) against clinically-relevant bacterial (methicillin-resistant Staphylococcus aureus (MRSA), Escherichia coli, and C. difficile strains) and fungal (Candida albicans) strains. S. aureus and E. coli were grown aerobically overnight on tryptone soy agar plates at 37° C. C. difficile was grown anaerobically on brain heart infusion supplemented agar at 37° C. for 48 hours. C. albicans was grown aerobically overnight on yeast peptone dextrose (YPD) agar plate at 35° C. Afterwards, a bacterial solution equivalent to 0.5 McFarland standard was prepared and diluted in cation-adjusted Mueller-Hinton broth (CAMHB) (for S. aureus and E. coli) to achieve a bacterial concentration of about 5×10^5 CFU/mL. C. difficile was diluted in brain heart infusion supplemented broth, supplemented with yeast extract, hemin and vitamin K to achieve a bacterial concentration of about 5×10^5 CFU/mL. C. albicans was diluted in Roswell Park Memorial Institute (RPMI 1640) medium with glutamine and without bicarbonate (GIBCO by Life Technologies, Green Island, N.Y., USA) which was buffered to pH 7.0 with 0.165 M of [3-(N-morpholino) propanesulfonic acid] (MOPS) (DOT Scientific Inc., Burton, Mich., USA) to achieve a fungal concentration of about 1.5×10^3 CFU/mL. Compounds and control drugs were added in the first row of the 96-well plates and serially diluted with the corresponding media containing bacteria. Plates were then incubated aerobically at 37° C. for 18-20 hours (for S. aureus and E. coli). C. difficile was incubated anaerobically at 37° C. for 48 hours. C. albicans was incubated aerobically at 37° C. for 24 hours.
(§2) The minimum inhibitory concentrations (MICs) of the tested compounds and control drugs; linezolid, vancomycin, gentamicin (antibiotics) and fluconazole and 5-fluorocytosine (5-FC) (antifungal drugs) were determined using the broth microdilution method, according to guidelines outlined by the Clinical and Laboratory Standards Institute (CLSI)^1, 2, 3 against clinically-relevant bacterial (methicillin-resistant Staphylococcus aureus (MRSA), Escherichia coli and Clostridium difficile strains) and fungal (Candida albicans) strain. S. aureus and E. coli were grown aerobically overnight on tryptone soy agar plates at 37° C. C. difficile was grown anaerobically on brain heart infusion supplemented agar at 37° C. for 48 hours. C. albicans was grown aerobically overnight on yeast peptone dextrose (YPD) agar plate at 35° C. Afterwards, a bacterial solution equivalent to 0.5 McFarland standard was prepared and diluted in cation-adjusted Mueller-Hinton broth (CAMHB) (for S. aureus and E. coli) to achieve a bacterial concentration of about 5×10^5 CFU/mL. C. difficile was diluted in brain heart infusion supplemented broth, supplemented with yeast extract, hemin and vitamin K to achieve a bacterial concentration of about 5×10^5 CFU/mL. C. albicans was diluted in Roswell Park Memorial Institute (RPMI 1640) medium with glutamine and without bicarbonate (GIBCO by Life Technologies, Green Island, N.Y., USA) which was buffered to pH 7.0 with 0.165 M of [3-(N-morpholino) propanesulfonic acid]

[2] = system: Escherichia coli JW55031 (TolC mutant); assay: MIC broth microdilution, initial screening; details: Escherichia coli, read-out: minimum inhibitory concentration (MIC) E. coli (TolC mutant), E. coli JW55031, 18-20 hours
Experimental: as §1, §2

[3] = system: Clostridium difficile (ATCC-BAA1870); assay: MIC broth microdilution, initial screening; details: Clostridioides difficile, ATCCBAA1870, 48 h
Experimental: as §1, §2

[4] = system: multi-drug resistant staphylococcal strains; assay: MIC against panel of staphylococcal strains; details: Staphylococcus; range over the staphylococcal panel; read-out: MIC values, tested staphylococcal strains
Excerpt: Based upon the initial results obtained, the active compounds were further screened against additional clinical isolates of methicillin-sensitive S. aureus (MSSA), methicillin-resistant S. aureus (MRSA), vancomycin-resistant S. aureus (VRSA), Staphylococcus epidermidis, vancomycin-resistant Enterococcus faecium (VRE), vancomycin-resistant Enterococcus faecalis (VRE) and Streptococcus pneumoniae, as presented in Table 2. Additionally, we examined whether the compounds were bacteriostatic (inhibit bacteria from growing) or bactericidal (kill bacteria) by determining the minimum bactericidal concentration (MBC). The MBC was determined by plating 5 μL from each well where no growth was present (in the MIC plates) onto tryptic soya agar plates and incubating plates at 37° C. for 24 hours. The MBC was categorized as the lowest concentration that generated a 99.9% reduction in bacterial colony-forming units (Table 3).
as §2, with “acid] (MOPS) (dot scientific inc., Burton, Mich., USA) to achieve a fungal concentration of about 1.5×10^3 CFU/mL. Compounds and control drugs were added in the first row of the 96-well plates and serially diluted with the corresponding media containing bacteria/fungi. Plates were then, incubated aerobically at 37° C. for 18-20 hours (for S. aureus and E. coli). […]” for “acid]”

C. albicans (ATCC 64124) = assay: MIC broth microdilution, initial screening; details: Candida albicans, read-out: minimum inhibitory concentration (MIC) C. albicans (ATCC 64124)
Experimental: as §1, §2

[5] = read-out: minimum inhibitory concentration (MIC) C. difficile (ATCC-BAA1870), anaerobic, 48 hours

SMILES | MIC [1] [µg/mL] | MIC [2] [µg/mL] | MIC [3, 5] [µg/mL] | MIC [4] [µg/mL] | MIC ([3]; anaerobic, 48 hours, read-out: minimum inhibitory concentration (MIC) C. difficile (ATCC-BAA1870)) [µg/mL] | MIC (C. albicans (ATCC 64124); ATCC64124, RPMI 1640, 24 hours) [µg/mL] | MIC (C. albicans (ATCC 64124); ATCC64124, 24 h) [µg/mL] | MIC ([3]; read-out: minimum inhibitory concentration (MIC) C. difficile (ATCC-BAA1870)) [µg/mL]
CC(=O)NC[C@H]1CN(c2ccc(N3CCOCC3)c(F)c2)C(=O)O1 [Linezolid, reference compound] | > 64 | 8 (≈ 23.7 µM) |  |  |  |  |  | 
O=C(Nc1ccc(-c2ccc(=O)[nH]n2)cc1)Nc1ccc(Cl)c(Cl)c1 [MY21, 1-(3,4-dichlorophenyl)-3-(4-(6-oxo-1,6-dihydropyridazin-3-yl)phenyl)urea] |  |  | 0.5 to 1 (≈ 1.33 to 2.67 µM) | 0.5 to 1 (≈ 1.33 to 2.67 µM) |  |  |  | 
CNC(=O)c1cc(Oc2ccc(NC(=O)Nc3ccc(Cl)c(C(F)(F)F)c3)cc2)ccn1 [Sorafenib, reference compound] | > 128 | 1 (≈ 2.15 µM) |  |  | 1 (≈ 2.15 µM) | > 128 |  | 
O=C(Nc1ccc(Oc2ccc(=O)[nH]n2)cc1)Nc1ccc(Cl)c(Cl)c1 [MY24, 1-(3,4-dichlorophenyl)-3-(4-((6-oxo-1,6-dihydropyridazin-3-yl)oxy)phenyl)urea] | > 128 | 1 (≈ 2.56 µM) | 0.5 to 1 (≈ 1.28 to 2.56 µM) | 0.5 to 1 (≈ 1.28 to 2.56 µM) |  |  | > 128 | 
O=C(Nc1cccc(Nc2ccc(Cl)nn2)c1)Nc1ccc(Cl)c(Cl)c1 [MY14, 1-(3-((6-chloropyridazin-3-yl)amino)phenyl)-3-(3,4-dichlorophenyl)urea] | > 128 | 2 (≈ 4.89 µM) |  | 2 to 8 (≈ 4.89 to 19.6 µM) |  |  | > 128 | 
CN[C@H](CC(C)C)C(=O)N[C@H]1C(=O)N[C@@H](CC(N)=O)C(=O)N[C@H]2C(=O)N[C@H]3C(=O)N[C@H](C(=O)N[C@H](C(=O)O)c4cc(O)cc(O)c4-c4cc3ccc4O)[C@H](O)c3ccc(c(Cl)c3)Oc3cc2cc(c3O[C@@H]2O[C@H](CO)[C@@H](O)[C@H](O)[C@H]2O[C@H]2C[C@](C)(N)[C@H](O)[C@H](C)O2)Oc2ccc(cc2Cl)[C@H]1O [Vancomycin, reference compound] |  |  |  |  |  |  |  | 1 (≈ 0.69 µM)
O=C(Nc1ccc(Oc2ccc(=O)[nH]n2)cc1)Nc1ccc(Cl)c(C(F)(F)F)c1 [MY31, 1-(4-chloro-3-(trifluoromethyl)phenyl)-3-(4-((6-oxo-1,6-dihydropyridazin-3-yl)oxy)phenyl)urea] | > 128 | 0.5 (≈ 1.18 µM) | 0.5 to 1 (≈ 1.18 to 2.35 µM) | 0.5 to 1 (≈ 1.18 to 2.35 µM) |  |  | > 128 | 
